# Results reported in a melting point compilation (Tetko et al.; mined from patent text by program, amines drawn as free bases though some values may be those of a salt).
row,melting point [°C],Compound
1,234 to 237,Cc1cccc(NS(=O)(=O)c2ccc(NC3=C(Cl)C(=O)c4ccccc4C3=O)cc2)c1
2,101 to 102,CCCc1c(OCCCCCOc2ccc3c(c2CCC)OC(C(=O)O)CC3)ccc(CC)c1O (stereo unspecified)
3,78 to 80,Fc1ccc2c(C3CCN(CCCOc4ccccc4)CC3)noc2c1
4,152 to 157,COc1cc2c(cc1OC)CC(N(C)CCCN1CCc3cc4c(cc3CC1=O)OCCO4)CC2 (stereo unspecified)
5,99 to 100,CCC1CC(C)C(=O)C=C1c1ccc(OCC(=O)O)c(Cl)c1Cl (stereo unspecified)
6,181 to 185,CC(C)C(C(=O)O)N(CCN1CCOCC1)S(=O)(=O)c1ccc(-c2ccc(NC(=O)c3cc4ccccc4o3)cc2)cc1 (stereo unspecified)
7,305 to 307,CN1CCN(c2cc(C(=O)Nc3ccc4c(c3)-c3c(c(C(N)=O)nn3-c3ccc5c(c3)OCO5)CC4)c(Cl)cn2)CC1
8,94 to 95,COc1cc(C)cc(Sc2cccc(F)c2C#N)c1
9,148 to 150,COc1ncc(S(C)(=O)=O)cc1Br
10,136 to 138,Cc1cnc2c([N+](=O)[O-])ccc(Cl)c2c1Cl
11,> 220,Cc1cc(=O)n(-c2cc(N)c(Cl)cc2F)c(=O)n1C
12,160 to 162,CC(=O)NCCCCNc1ccc(NCCN(C)C)c2c1C(=O)c1ccccc1C2=O
13,148 to 172,N#Cc1ccc(-c2cn(-c3ccc(I)cc3)c(SCCO)n2)cc1
14,214 to 215,Cn1ncc2c1-c1c(Oc3ccc(OCc4ccc5ccccc5n4)cc3)sc(C(=O)O)c1CC2
15,50 to 52,CCOC(=O)c1cnc(Cl)c(N)c1NC
16,182 to 183,CSc1nccc(-c2c(-c3ccc(F)cc3)ncn2C2CCNCC2)n1
17,80 to 82,CC(=O)Nc1c(C(=O)c2ccccc2)[nH]c2ccc(F)cc12
18,167,COc1ccc2ccc(N3C(=O)c4ccccc4C3OCC(=O)N3CCC(O)CC3)nc2n1 (stereo unspecified)
19,> 250,CC(C)(C)C(=O)Nc1nc(O)c2cc(C#Cc3ccc(C(=O)O)cc3)cnc2n1
20,243 to 247,COc1ccccc(NC(=O)C2=C(O)c3ccccc3S(=O)(=O)N2C)c1=O
21,88 to 89,N#CC(CCCCCC(=O)O)c1ccc2ccccc2c1 (stereo unspecified)
22,115 to 116,CCCCCC(=O)NCCc1ccc(S(=O)(=O)NC(=O)c2ccc(C(=O)NCC(=O)O)nc2)cc1

row,melting point [°C],Compound
1,101 to 103,O=C1CCC(c2ccc(-c3ccccc3Cl)o2)O1 (stereo unspecified)
2,143 to 145,CON=C(C)COc1c(-c2ccc(S(C)(=O)=O)cc2)cnn(-c2ccc(F)c(F)c2)c1=O
3,189 to 191,CCCCNC(=O)NS(=O)(=O)c1ccc(CCNC(=O)N2CC(C)=CC2=O)cc1
4,85 to 86,CC(C)=CCN(c1ccc(OCc2ccccc2)cc1)C1CCN(C(=O)C2CN(C)CCN2CCC(C)C)CC1 (stereo unspecified)
5,35 to 36,CCCCCCCCCCCCCCOc1ccccc1CBr
6,198 to 205,COc1cc(N2CCC(N3CCN(C)CC3)CC2)ccc1Nc1ncc2ccc(-c3ccccc3S(=O)(=O)N(C)C)n2n1
7,279 to 282,O=C(O)C=Cc1ccc(-n2ccccc2=O)cc1
8,266 to 268,O=C(N[C@H]1C[C@H](C(=O)O)Nc2cc(Cl)cc(Cl)c21)C1c2ccccc2-c2ccccc21 (relative stereo)
9,150,CCn1ccc(=O)[nH]c1=O
10,130 to 135,COc1ccc(C2c3[nH]c4ccccc4c3CCN2C(=O)C=Cc2ccc(C(F)(F)F)cc2)cc1 (stereo unspecified)
11,225,CCCCNc1c(C(=O)O)cnc2[nH]ncc12
12,139 to 141,Cc1cc(OCCN(C)C)ccc1NC(=O)c1ccc(N2CCNCC2)cc1
13,246,Cn1cncc1C(O)(c1ccoc1)c1ccc2nc(Cl)cc(-c3cccc(Cl)c3)c2c1 (stereo unspecified)
14,109 to 113,CN1CCN(c2cc(Cl)cc3c2c(=O)n(Cc2ccc([N+](=O)[O-])cc2)c(=O)n3Cc2ccccc2)CC1
15,210,ClC(Cl)(Cl)c1nc2ncccc2[nH]1
16,118,CC(C)(C)OC(=O)Nc1ccc(-c2cccc(F)c2F)cc1NC(=O)CC(=O)c1cccc(C#N)c1
17,89 to 92,CC(C#CCn1ccnc1)N1CCN(C)C1=O (stereo unspecified)
18,70 to 72,CCSc1cn(C(C)C(=O)N(C)C)nc1-c1ccccc1 (stereo unspecified)
19,130 to 131,COc1ccc(-c2nc(C(=O)NC3CCN(Cc4ccccc4)CC3)sc2-c2ccc(OC)cc2)cc1
20,> 250,N[C@@]1(C(=O)O)C[C@H](Oc2ccc(Cl)cc2Cl)[C@H]2[C@H](C(=O)O)[C@H]21 (relative stereo)
21,145 to 147,CC(C)(OCc1nn(Cc2ccccc2)c2ccc(Cl)cc12)C(=O)O
22,136 to 141,O=C(NC(=S)Nc1cc(Cl)cc(C(F)(F)F)c1Cl)c1c(F)cccc1F

# Continued, compound first:
row,Compound,melting point [°C]
1,N#Cc1cccnc1N1CCN(CC(=O)Nc2ccc(F)c(Cl)c2)CC1,137 to 140
2,O=C1NCCN1c1ccc(S(=O)(=O)Nc2ccc3c(c2)Cc2ccccc2-3)cc1,164 to 166
3,CN1CCN(c2ccc3[nH]c(=O)oc(=O)c3c2)CC1,285
4,CCNC(=O)Nc1cc(C(C)(C)C)c2c(c1)C(C)(C)CO2,197 to 198
5,Cc1cc(C)n(-c2cncc(Nc3ccc(Cl)cc3)n2)n1,157 to 159
6,CCCCCCCCCCCCCCOc1ccc(C(=O)Cl)cc1OCCCCCCCCCCCCCC,68 to 70
7,O=S(=O)(Nc1ccc2c(OCc3coc(-c4ccccc4)n3)cccc2c1)C(F)(F)F,195 to 197
8,CCCCOC(=O)n1c(N)nc(C#N)c1C#N,170 to 172
9,Cc1oc2cc(O)ccc2c(=O)c1C(N)=O,289 to 290
10,CCOC(=O)c1ncc2[nH]c3ccc(Cl)cc3c2c1C,225 to 228
11,C[C@@H]1CN(c2c(C=O)cc(Br)c(F)c2F)C[C@H](C)O1,88.1 to 92
12,O=C(NC[C@@H](C(=O)NO)N1CCCCC1)c1ccc(OCc2ccnc(-c3ccccc3)c2)cc1,177
13,ON=Cc1ccc(N2CCC3(CC2)OCCO3)cc1,151 to 152
14,CCC(=O)OCC12CCC(=O)C=C1CCC1C2CCC2(C)C(OC(=O)CC)CCC12 (stereo unspecified),82 to 84
15,Clc1ccc(C(=NN=Cc2cccnc2)SSC(=NN=Cc2cccnc2)c2ccc(Cl)cc2)cc1,143 to 145
16,O=C(O)CCC(CC=Cc1ccccc1Cl)(C(=O)C=Cc1ccc(Cl)cc1)c1ccccc1 (stereo unspecified),90 to 125
17,O=C(NCCO[N+](=O)[O-])C1COc2ccccc2O1 (stereo unspecified),69 to 71
18,CCCCCCCCCCCCCCCCCCOC(=O)CCC1CCCCC1(c1ccc(O)c(C(C)(C)C)c1)c1ccc(O)c(C(C)(C)C)c1 (stereo unspecified),155
19,CNc1nc2c(OCc3ccccc3)cccc2n1C,213
20,Clc1nc2ccccc2nc1OCCOc1ccccc1,99.5 to 102
21,O=C1CCCC1c1ccc(Cl)cc1 (stereo unspecified),154 to 155
22,Cc1cc(Cc2ccccc2)nc(Nc2ccc(-n3cnc(C)n3)c(F)c2)n1,183 to 185
23,Nc1c(CCO)cccc1C(=O)c1ccc(Br)cc1,126 to 127
24,CC1(CCC(=O)O)CC(=O)c2ccc(OCc3cccc(OCc4ccc5ccccc5n4)c3)cc2O1 (stereo unspecified),152 to 154
25,CN(Cc1ccccc1)C(=O)Cn1nc(-c2ccccc2O)nc1-c1ccccc1O,179 to 180
26,CC(C)(CCOc1ccc(Cl)cc1)C(=O)Cn1cncn1,188 to 190

row,Compound,melting point [°C]
1,O=C1CCC2=C(CCc3cc(Br)ccc32)N1,227 to 228
2,COc1cc(OC2OC(CO)C(O)C(O)C2O)ccc1C=Cc1cc(C=Cc2ccc3cc[nH]c3c2)n[nH]1 (stereo unspecified),194 to 199
3,COc1ccc(C(=O)Nc2ccc(-c3ncc(-c4ccc(NC(=O)C5CCCCCC5)cc4)[nH]3)cc2)cc1,311 to 313
4,CC1(C)OC(c2ccc(S(C)(=O)=O)cc2)=C(c2cc3ccccc3s2)C1=O,204 to 206
5,CCNS(=O)(=O)c1cc(C)c2cc(C(C)C)ccc(C)c1-2,96 to 98
6,CCCCN(CC(=O)N1c2ccccc2N(CC)C(=O)c2cnc(-c3ccccc3)nc21)C(C)(C)C,70 to 72
7,O=[N+]([O-])c1ccc(C=CS(=O)(=O)N=C(Cl)c2ccccc2)cc1,168 to 175
8,CCCn1cnc(CO)c1C,88 to 88.5
9,Cc1ccc(=O)n(C2c3cc(C#N)ccc3OC(C)(C)C2O)n1 (stereo unspecified),> 257
10,NC(=O)c1cccc2c1OC(CN1CC=C(c3c[nH]c4ccc(F)cc34)CC1)CO2 (stereo unspecified),195 to 197
11,CC1OC(C)(C)c2cc(-c3ccc(C#N)n3C)ccc2N1C(=O)OCC1c2ccccc2-c2ccccc21 (stereo unspecified),63 to 64
12,COc1ccc(C)cc1NC(=O)Nc1ccc2c(c1)CCN(C(=O)Nc1ccc(OCC(O)CO)cc1Cl)C2 (stereo unspecified),119 to 121
13,COC1C(=O)N=C(NC(=O)Nc2cccc(Cl)c2)N1C (stereo unspecified),147 to 149
14,Cc1nc2c(C)cccn2c(=O)c1CCN1CC=C(c2c[nH]c3ccccc23)CC1,210 to 212
15,O=CNCCSc1ccc2nccn2n1,148 to 151
16,CC(C)(CCc1cc2cc(Cl)ccc2n1S(=O)(=O)c1ccccc1)C(=O)O,242
17,CC(C)c1cccc2cc3ccccc3cc12,36 to 36.5
18,CN(Cc1ccccc1)CC1Nc2ccccc2Cn2cccc21 (stereo unspecified),147 to 149
19,O=C1N(C(c2ccccc2)c2ccccc2)c2ccccc2C12COc1cc3c(cc12)OCCCO3 (stereo unspecified),165 to 168
20,COc1ccc(C(=O)Nc2ccccc2)cc1Nc1ccccc1,194 to 195
21,Cc1ccc(C23CC4CC(C2)CC(c2ccc(C)cc2)(C4)C3)cc1,145 to 146
22,Fc1ccc(C#Cc2ccc(F)cc2)cc1,95 to 96
23,O=C1C(=CO)c2ccccc2N1c1cccc(Cl)c1,175 to 178
24,COc1ccc(S(N)(=O)=O)cc1C(=O)Cl,148 to 150
25,Cc1c(-c2ccncc2)sc(-c2ccncc2)c1C(F)F,132 to 133
26,CCCCC(CC)n1nnc2c(Nc3c(Cl)cc(OC)cc3OC)nc(C)cc21 (stereo unspecified),155 to 156
